Test results taken from EP0624315B1, “Diaryl(pyridinio and isoquinolinio) boron fungicidal agents” (AMERICAN CYANAMID COMPANY, priority 1993, dated 1994).

Legend:
[1] = tested on: Alternaria solani; assay: In vivo fungicidal evaluation, Tomato Early Blight; conditions: 200 ppm, host plants sprayed, dried, then inoculated; note: ranges in brackets are in %
[2] = tested on: Erysiphe graminis f. sp. tritici; assay: In vivo fungicidal evaluation, Wheat Powdery Mildew; conditions: 200 ppm, host plants sprayed, dried, then inoculated; note: ranges in brackets are in %
[3] = tested on: Cercospora beticola; assay: In vivo fungicidal evaluation, Sugar Beet Cercospora; conditions: 200 ppm, host plants sprayed, dried, then inoculated; note: ranges in brackets are in %
[4] = tested on: Diabrotica undecimpunctata howardi, 3rd instar southern corn rootworm; assay: Insecticide evaluation, southern corn rootworm soil test; type: in vivo; parameters: key: 0 = no effect; 1 = 10-25% kill; 2 = 26-35% kill; 3 = 36-45% kill; 4 = 46-55% kill; 5 = 56-65% kill; 6 = 66-75% kill; 7 = 76-85% kill; 8 = 86-99% kill; 9 = 100% kill; - = No evaluation; conditions: 50 kg/ha (1.25 mg active ingredient per jar), 6 days
Procedure: (§1) The following tests show the efficacy of the compounds as insecticides and acaricides. The evaluations are conducted with solutions of test compounds dissolved or dispersed in 50/50 acetone/water mixtures. The test compound is technical material dissolved or dispersed in said acetone/water mixtures in sufficient amounts to provide the concentrations set forth in Table I below. All concentrations reported herein are in terms of active ingredient. All tests are conducted in a laboratory maintained at about 27 °C. The rating system employed is as follows:
One cc of fine talc is placed in a 30 mL wide-mouth screw-top glass jar. One mL of the appropriate acetone test solution is pipetted onto the talc so as to provide 1.25 mg of active ingredient per jar. The jars are set under a gentle air flow until the acetone is evaporated. The dried talc is loosened, 1 cc of millet seed is added to serve as food for the insects and 25 mL of moist soil is added to each jar. The jars are capped and the contents thoroughly mixed on a Vortex Mixer. Following this, ten 3rd instar rootworms are added to each jar and the jars are loosely capped to allow air exchange for the larvae. The treatments are held for 6 days before mortality counts are made. Missing larvae are presumed dead, since they decompose rapidly and can not be found. The concentration used in this test corresponds to approximately 50 kg/ha.

[5] = tested on: Plasmopara viticola; assay: In vivo fungicidal evaluation, Grape Downy Mildew; conditions: 200 ppm, host plants sprayed, dried, then inoculated; note: ranges in brackets are in %
[6] = tested on: Tetranychus urticae (OP-resistant strain), 2-spotted spider mite; assay: Acaricide evaluation, 2-spotted spider mite plant dip; type: in vivo; conditions: 300 ppm, 2 days, adult kill
Procedure: as §1
Sieva lima bean plants with primary leaves expaned to 7 to 8 cm are selected and cut back to one plant per pot. A small piece is cut from a leaf taken from the main colony and placed on each leaf of the test plants. This is done about 2 hours before treatment to allow the mites to move over to the test plant and to lay eggs. The size of the cut piece is varied to obtain about 100 mites per leaf. At the time of the treatment, the piece of leaf used to transfer the mites is removed and discarded. The mite-infested plants are dipped in the test formulation for 3 seconds with agitation and set in the hood to dry. Plants are kept for 2 days before estimates of adult kill are made.

[7] = tested on: Venturia inaequalis; assay: In vivo fungicidal evaluation, Apple Scab; conditions: 200 ppm, host plants sprayed, dried, then inoculated; note: ranges in brackets are in %
[8] = tested on: Pyricularia oryzae; type: in vivo; conditions: 200 ppm, host plants sprayed, dried, then inoculated
[9] = tested on: Pythium ultimum (Pythul); assay: In vitro fungicidal evaluation, mycelial growth inhibition in nutrient broth; type: cell-based; conditions: 25 ppm, 3-4 days at 21°C, rated visually; note: ranges in brackets are in %
Procedure: (§2) Test compounds are dissolved or suspended in acetone and dispersed into cell well plates containing a suspension of ground fungal mycelia in a nutrient broth. Assay plates are incubated for 3-4 days at 21°C. Growth inhibition is measured visually and is rated using the following scale:
(§3) Untreated controls, solvent blanks and reference standards are included in each test.
(§4) Assay fungi include the plant pathogens, Pythium ultimum (Pythul); Rhizoctonia solani (Rhizso); Fusarium oxysporum f. sp. cucumerinum (Fusoxc); and Pseudocercosporella herpotrichoides (Psdche).
(§5) When more than one test is run, the data are averaged. The compouds evaluated are reported by compound number given in Example 5.

[10] = tested on: Pseudocercosporella herpotrichoides (Psdche); assay: as above; type: cell-based; conditions: 25 ppm, 3-4 days at 21°C, rated visually; note: ranges in brackets are in %
Procedure: as §2, §3, §4, §5

[11] = tested on: Rhizoctonia solani (Rhizso); assay: as above; type: cell-based; conditions: 25 ppm, 3-4 days at 21°C, rated visually; note: ranges in brackets are in %
Procedure: as §2, §3, §4, §5

[12] = tested on: Fusarium oxysporum f. sp. cucumerinum (Fusoxc); assay: as above; type: cell-based; conditions: 25 ppm, 3-4 days at 21°C, rated visually; note: ranges in brackets are in %
Procedure: as §2, §3, §4, §5

[13] = tested on: Botrytis cinerea; assay: In vivo fungicidal evaluation, Pepper Botrytis; conditions: 200 ppm, host plants sprayed, dried, then inoculated; note: ranges in brackets are in %
[14] = tested on: Puccinia recondita f. sp. tritici; assay: In vivo fungicidal evaluation, Wheat Leaf Rust; conditions: 200 ppm, host plants sprayed, dried, then inoculated; note: ranges in brackets are in %
[15] = tested on: Spodoptera eridania 3rd instar larvae, southern army-worm; assay: Insecticide evaluation, southern armyworm leaf dip; type: in vivo; conditions: 1000 ppm, 5 days
Procedure: as §1
A sieva lima bean leaf expanded to 7 to 8 cm in length is dipped in the test suspension with agitation for 3 seconds and placed in a hood to dry. The leaf is then placed in a 100x10 mm petri dish containing a damp filter paper on the bottom and 10 3rd instar caterpillars. The dish is maintained for 5 days before observations are made of mortality, reduced feeding or any interference with normal moulting.

Compound | TEB (Tomato Early Blight) disease control rating [1] | WPM (Wheat Powdery Mildew) disease control rating [2] | SBC (Sugar Beet Cercospora) disease control rating [3] | Southern Corn Rootworm kill rating [4] | GDM (Grape Downy Mildew) disease control rating [5] | OP. Res. Mites kill rating [6] | AS (Apple Scab) disease control rating [7] | RB (Rice Blast) disease control rating [8] | PHTHUL growth inhibition rating [9] | PSDCHE growth inhibition rating [10] | RHIZSO growth inhibition rating [11] | FUSOXC growth inhibition rating [12] | PB (Pepper Botrytis) disease control rating [13] | WLR (Wheat Leaf Rust) disease control rating [14] | Southern Armyworm kill rating [15]
C[B-](c1ccccc1)(c1ccccc1)[n+]1cccc(Br)c1 [Compound 18, (3-Bromopyridinio)methyldiphenylboron] | 4 (45 - 59) | 0 (0) | 6 (75 - 89) | 0 | 4 (45 - 59) | 7 (7 = 76-85% kill) | 0 (0) | 5 (60 - 74) | 7 (90 - 99) | 9 (100) | 7 (90 - 99) | 7 (90 - 99) | 8 (96 - 99) | 0 (0) | 9 (9 = 100% kill)
(3-Ethyl-4-methylpyridinio)methyldiphenylboron [Compound 5] | 8 (96 - 99) | 9 (100) | 0 (0) | 9 (9 = 100% kill) | 9 (100) | 8 (8 = 86-99% kill) | 0 (0) | 0 (0) | 9 (100) | 9 (100) | 9 (100) | 9 (100) | 0 (0) | 8 (96 - 99) | 9 (9 = 100% kill)
(4-Bromoisoquinolinio)bis(p-fluorophenyl)methylboron [Compound 14] | 0 (0) | 0 (0) | 7 (90 - 95) | 5 (5 = 56-65% kill) | 7 (90 - 95) | 9 (9 = 100% kill) | 8 (96 - 99) | 8 (96 - 99) | 9 (100) | 9 (100) | 9 (100) | 9 (100) | 9 (100) | 0 (0) | 9 (9 = 100% kill)
